# Where two headings read alike, the source gives them in different places.
# Key:
# Type in all cases: in vivo
# [1] = tested on: canarygrass (Phalaris minor); experiment: Test B postemergence plant response; conditions: Phalaris minor, post-emergence, 360 h, Postemergence
# How it was run: (§1)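 Visual ratings from 0 (no effect) to 100 (complete control), made against controls 13–15 days after treatment, kept in a greenhouse. Compounds were applied postemergence to potted plants at the 1- to 4-leaf stage (2–18 cm).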
# [2] = tested on: winter barley (Hordeum vulgare); experiment: Test B postemergence plant response; conditions: Hordeum vulgare, post-emergence, Postemergence, read-out: Plant response rating, Barley
# How it was run: as §1
# [3] = tested on: windgrass (Apera spica-venti); experiment: Test B postemergence plant response; conditions: Apera spica-venti, post-emergence, 360 h, Postemergence
# How it was run: as §1
# [4] = tested on: chickweed (Stellaria media); experiment: Test B postemergence plant response; conditions: Stellaria media, post-emergence, 360 h, Postemergence
# How it was run: as §1
# [5] = tested on: large crabgrass (Digitaria sanguinalis); experiment: Test A pre-/postemergence plant response; conditions: Digitaria sanguinalis, 240 h; for pest or weed control at 125 g/ha: 125 g ai/ha; for pest or weed control at 500 g/ha: 500 g ai/ha
# How it was run: (§2)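 Greenhouse pots of loam/sand received directed preemergence soil sprays or postemergence sprays (plants 2–10 cm, 1–2 leaf stage), compounds formulated in non-phytotoxic solvent with surfactant. Injury was rated visually versus untreated controls after about ten days on a 0 (no effect) to 100 (complete control) scale.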
# [6] = tested on: corn (Zea mays); experiment: Test A pre-/postemergence plant response; conditions: Zea mays, 240 h; for Corn plant response rating (crop injury, 0 = no effect, 100 = complete kill) at 500 g/ha: 500 g ai/ha
# How it was run: as §2
# [7] = tested on: velvetleaf (Abutilon theophrasti); experiment: Test A pre-/postemergence plant response; conditions: Abutilon theophrasti, 240 h; for pest or weed control at 125 g/ha: 125 g ai/ha; for pest or weed control at 500 g/ha: 500 g ai/ha
# How it was run: as §2
# [8] = tested on: morningglory (Ipomoea spp.); experiment: Test A pre-/postemergence plant response; conditions: Ipomoea, 240 h; for pest or weed control at 125 g/ha: 125 g ai/ha; for pest or weed control at 500 g/ha: 500 g ai/ha
# How it was run: as §2
# [9] = tested on: giant foxtail (Setaria faberii); experiment: Test A pre-/postemergence plant response; conditions: Setaria faberi, 240 h; for pest or weed control at 125 g/ha: 125 g ai/ha; for pest or weed control at 500 g/ha: 500 g ai/ha
# How it was run: as §2
# [10] = tested on: wheat (Triticum aestivum); experiment: Test A pre-/postemergence plant response; conditions: Triticum aestivum, 240 h; for plant injury at 125 g/ha: 125 g ai/ha; for plant injury at 500 g/ha: 500 g ai/ha
# How it was run: as §2
# [11] = tested on: nightshade (eastern black nightshade, Solanum ptycanthum); experiment: Test B pre-/postemergence plant response; conditions: Preemergence
# How it was run: (§3)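 Steps: sow seed in loam–sand soil and spray preemergence, or grow plants in peat-based medium to 1–4 leaves (2–18 cm) and spray postemergence; formulation is non-phytotoxic solvent plus surfactant; hold in greenhouse 13–15 days; score visually vs controls, 0 = no effect, 100 = complete control.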
# [12] = tested on: sunflower (common oilseed sunflower, Helianthus annuus); experiment: Test B pre-/postemergence plant response; conditions: Preemergence
# How it was run: as §3
# [13] = 125 g ai/ha, visual rating after 13 to 15 days, scale 0 (no effect) to 100 (complete control)
# [14] = 31 g ai/ha, scale 0 to 100 (0 no effect, 100 complete control)
# [15] = 62 g ai/ha, scale 0 to 100, 0 no effect, 100 complete control
smiles,measurement,setting,value
"O=C1CCCC(O)=C1C(=O)c1cnc(-c2ccccc2)n(-c2ccccc2)c1=O [Compound 2, 5-[(2-hydroxy-6-oxo-1-cyclohexen-1-yl)carbonyl]-2,3-diphenyl-4(3H)-pyrimidinone]",pest or weed control at 16 g/ha,"[1]; 16 g ai/ha, 0 to 100 scale, read-out: Plant response rating, Canarygrass",20%
same,pest or weed control at 31 g/ha,"[1]; 31 g ai/ha, scale 0 to 100 (0 no effect, 100 complete control), read-out: Plant response rating, Canarygrass",40%
same,pest or weed control at 62 g/ha,"[1]; 62 g ai/ha, scale 0 (no effect) to 100 (complete control), 13 to 15 days, read-out: Plant response rating, Canarygrass",50%
same,pest or weed control at 125 g/ha,[1]; [13],80%
same,plant injury at 16 g/ha,"[2]; 16 g ai/ha, 0 to 100 scale",0%
same,plant injury at 31 g/ha,[2]; [14],10%
same,plant injury at 62 g/ha,"[2]; 62 g ai/ha, scale 0 (no effect) to 100 (complete control), 13 to 15 days",20%
same,plant injury at 125 g/ha,"[2]; 125 g ai/ha, scale 0 to 100 (0 no effect, 100 complete control), 13 to 15 days",30%
same,pest or weed control at 16 g/ha,"[3]; 16 g ai/ha, 0 to 100 scale, read-out: Plant response rating, Windgrass",10%
same,pest or weed control at 31 g/ha,"[3]; 31 g ai/ha, scale 0 to 100 (0 no effect, 100 complete control), read-out: Plant response rating, Windgrass",10%
same,pest or weed control at 62 g/ha,"[3]; 62 g ai/ha, scale 0 (no effect) to 100 (complete control), 13 to 15 days, read-out: Plant response rating, Windgrass",15%
same,pest or weed control at 125 g/ha,[3]; [13],50%
same,pest or weed control at 16 g/ha,"[4]; 16 g ai/ha, 0 to 100 scale, read-out: Plant response rating, Chickweed",70%
same,pest or weed control at 31 g/ha,"[4]; 31 g ai/ha, scale 0 to 100 (0 no effect, 100 complete control), read-out: Plant response rating, Chickweed",75%
same,pest or weed control at 62 g/ha,"[4]; 62 g ai/ha, scale 0 (no effect) to 100 (complete control), 13 to 15 days, read-out: Plant response rating, Chickweed",90%
same,pest or weed control at 125 g/ha,[4]; [13],95%
same,pest or weed control at 125 g/ha,"[5]; post-emergence, Postemergence, visual injury, 0 to 100 scale (0 no effect, 100 complete control), approx. ten days, read-out: Crabgrass, Large plant response rating",90%
same,pest or weed control at 500 g/ha,"[5]; post-emergence, Postemergence, 0 to 100 scale, 0 = no effect, 100 = complete control, approx. ten days, read-out: Plant response rating, Crabgrass, Large",100%
same,pest or weed control at 125 g/ha,"[5]; pre-emergence, Preemergence, 0 to 100 scale, 0 = no effect, 100 = complete control, read-out: Plant response rating, Crabgrass, Large",80%
same,pest or weed control at 500 g/ha,"[5]; pre-emergence, Preemergence, visual injury, 0 to 100 scale (0 no effect, 100 complete control), approx. ten days, read-out: Plant response rating, Crabgrass, Large",100%
same,plant injury at 125 g/ha,"[6]; post-emergence, Postemergence, 125 g ai/ha, visual injury, 0 to 100 scale (0 no effect, 100 complete control), approx. ten days, read-out: Corn plant response rating",30%
same,"Corn plant response rating (crop injury, 0 = no effect, 100 = complete kill) at 500 g/ha","[6]; post-emergence, Postemergence, 0 to 100 scale, 0 = no effect, 100 = complete control, approx. ten days",90%
same,"Corn plant response rating (crop injury, 0 = no effect, 100 = complete kill) at 125 g/ha","[6]; pre-emergence, Preemergence, 125 g ai/ha, 0 to 100 scale, 0 = no effect, 100 = complete control",0%
same,"Corn plant response rating (crop injury, 0 = no effect, 100 = complete kill) at 500 g/ha","[6]; pre-emergence, Preemergence, visual injury, 0 to 100 scale (0 no effect, 100 complete control), approx. ten days",0%
same,pest or weed control at 125 g/ha,"[7]; post-emergence, Postemergence, visual injury, 0 to 100 scale (0 no effect, 100 complete control), approx. ten days, read-out: Velvetleaf plant response rating",100%
same,pest or weed control at 500 g/ha,"[7]; post-emergence, Postemergence, 0 to 100 scale, 0 = no effect, 100 = complete control, approx. ten days, read-out: Plant response rating, Velvetleaf",100%
same,pest or weed control at 125 g/ha,"[7]; pre-emergence, Preemergence, 0 to 100 scale, 0 = no effect, 100 = complete control, read-out: Plant response rating, Velvetleaf",60%
same,pest or weed control at 500 g/ha,"[7]; pre-emergence, Preemergence, visual injury, 0 to 100 scale (0 no effect, 100 complete control), approx. ten days, read-out: Plant response rating, Velvetleaf",100%
same,pest or weed control at 125 g/ha,"[8]; post-emergence, Postemergence, visual injury, 0 to 100 scale (0 no effect, 100 complete control), approx. ten days, read-out: Morningglory plant response rating",90%
same,pest or weed control at 500 g/ha,"[8]; post-emergence, Postemergence, 0 to 100 scale, 0 = no effect, 100 = complete control, approx. ten days, read-out: Plant response rating, Morningglory",100%
same,pest or weed control at 125 g/ha,"[8]; pre-emergence, Preemergence, 0 to 100 scale, 0 = no effect, 100 = complete control, read-out: Plant response rating, Morningglory",60%
same,pest or weed control at 500 g/ha,"[8]; pre-emergence, Preemergence, visual injury, 0 to 100 scale (0 no effect, 100 complete control), approx. ten days, read-out: Plant response rating, Morningglory",90%
same,pest or weed control at 125 g/ha,"[9]; post-emergence, Postemergence, visual injury, 0 to 100 scale (0 no effect, 100 complete control), approx. ten days, read-out: Foxtail, Giant plant response rating",90%
same,pest or weed control at 500 g/ha,"[9]; post-emergence, Postemergence, 0 to 100 scale, 0 = no effect, 100 = complete control, approx. ten days, read-out: Plant response rating, Foxtail, Giant",100%
same,pest or weed control at 125 g/ha,"[9]; pre-emergence, Preemergence, 0 to 100 scale, 0 = no effect, 100 = complete control, read-out: Plant response rating, Foxtail, Giant",50%
same,pest or weed control at 500 g/ha,"[9]; pre-emergence, Preemergence, visual injury, 0 to 100 scale (0 no effect, 100 complete control), approx. ten days, read-out: Plant response rating, Foxtail, Giant",90%
same,plant injury at 125 g/ha,"[10]; post-emergence, Postemergence, visual injury, 0 to 100 scale (0 no effect, 100 complete control), approx. ten days, read-out: Wheat plant response rating",0%
same,plant injury at 500 g/ha,"[10]; post-emergence, Postemergence, 0 to 100 scale, 0 = no effect, 100 = complete control, approx. ten days, read-out: Plant response rating, Wheat",20%
same,plant injury at 125 g/ha,"[10]; pre-emergence, Preemergence, 0 to 100 scale, 0 = no effect, 100 = complete control, read-out: Plant response rating, Wheat",0%
same,plant injury at 500 g/ha,"[10]; pre-emergence, Preemergence, visual injury, 0 to 100 scale (0 no effect, 100 complete control), approx. ten days, read-out: Plant response rating, Wheat",0%
same,"Plant response rating, Nightshade","[11]; 16 g ai/ha, scale 0 to 100, 0 no effect, 100 complete control",55
same,"Plant response rating, Nightshade",[11]; [14],98
same,"Plant response rating, Nightshade",[11]; [15],100
same,Nightshade plant response rating,"[11]; 125 g ai/ha, 0 to 100 scale",100
same,"Plant response rating, Sunflower",[12]; [14],50
same,"Plant response rating, Sunflower",[12]; [15],70
same,Sunflower plant response rating,"[12]; 125 g ai/ha, 0 to 100 scale",90

# Source: patent US8952024B2, “Herbicidal pyrimidone derivatives” (E I du Pont de Nemours and Company, priority 2009, dated 2015)
